Test results from ChEMBL document CHEMBL4411285, “Design, synthesis, in silico pharmacokinetics prediction and biological evaluation of 1,4-dihydroindeno[1,2-c]pyrazole chalcone as EGFR /Akt pathway inhibitors” (Eur J Med Chem, 2019).
Calls of active or inactive are those of the source. No cut-off for these calls is given here.

Columns and labels:
[1] = tested on: MDA-MB-231; experiment: Cytotoxicity against human MDA-MB-231 cells after 24 hrs by MTT assay; type: functional, cell-based; conditions: MDA-MB-231, 24 h
[2] = tested on: MCF7; experiment: Cytotoxicity against human MCF7 cells after 24 hrs by MTT assay; type: functional, cell-based; conditions: MCF7, 24 h
[3] = tested on: SK-BR-3; experiment: Cytotoxicity against human SKBR3 cells after 24 hrs by MTT assay; type: functional, cell-based; conditions: SK-BR-3, 24 h
[4] = tested on: HCT-116; experiment: Cytotoxicity against human HCT116 cells after 24 hrs by MTT assay; type: functional, cell-based; conditions: HCT-116, 24 h
[5] = tested on: A549; experiment: Cytotoxicity against human A549 cells after 24 hrs by MTT assay; type: functional, cell-based; conditions: A549, 24 h
[6] = tested on: HEK-293T; experiment: Cytotoxicity against human HEK293T cells after 24 hrs by MTT assay; type: cell-based
[7] = tested on: A549; experiment: Cell cycle arrest in human A549 cells assessed as accumulation of cells at sub G1 phase at 10 uM after 24 hrs by propidium iodide staining-based flow cytometric analysis (reference value: 0.52%); type: functional
[8] = tested on: A549; experiment: Cell cycle arrest in human A549 cells assessed as accumulation of cells at G0/G1 phase at 10 uM after 24 hrs by propidium iodide staining-based flow cytometric analysis (reference value: 71.1%); type: functional
[9] = tested on: A549; experiment: Cell cycle arrest in human A549 cells assessed as accumulation of cells at S phase at 10 uM after 24 hrs by propidium iodide staining-based flow cytometric analysis (reference value: 6.22%); type: functional
[10] = tested on: A549; experiment: Cell cycle arrest in human A549 cells assessed as accumulation of cells at G2/M phase at 10 uM after 24 hrs by propidium iodide staining-based flow cytometric analysis (reference value: 21.7%); type: functional
[11] = tested on: A549; experiment: Induction of apoptosis in human A549 cells assessed as increase in BAX expression at 10 uM after 24 hrs by Western blot analysis; type: functional, cell-based
[12] = tested on: A549; experiment: Induction of apoptosis in human A549 cells assessed as decrease in Bcl-2 expression at 10 uM after 24 hrs by Western blot analysis; type: functional, cell-based
[13] = tested on: A549; experiment: Induction of apoptosis in human A549 cells assessed as increase in TP53 expression at 10 uM after 24 hrs by Western blot analysis; type: functional, cell-based
[14] = tested on: A549; experiment: Downregulation of EGFR expression in human A549 cells at 10 uM after 24 hrs by Hoechst staining-based fluorescence assay; type: functional, cell-based
[15] = tested on: A549; experiment: Downregulation of AKT expression in human A549 cells at 10 uM after 24 hrs by Hoechst staining-based immunocytochemistry; type: functional, cell-based
[16] = tested on: A549; experiment: Inhibition of 3-D spheroids cell growth in human A549 cells at 10 uM after 25 days by crystal violet staining-based immunocytochemistry; type: functional
[17] = molecular target: Tubulin (Homo sapiens) (UniProt P68371+Q9H4B7+P0DPH7+P68366+Q13509+Q71U36+P04350+Q3ZCM7+P07437+P68363+Q9BQE3+Q6PEY2+Q13885+Q9BVA1+Q9BUF5); experiment: Inhibition of tubulin network in human A549 cells at 10 uM after 24 hrs by Hoechst 33342 staining-based confocal microscopic analysis; type: cell-based

inhibition [17]	Compound	IC50 [1]	IC50 [2]	IC50 [3]	IC50 [4]	IC50 [5]	IC50 [6]	Activity [7]	Activity [8]	Activity [9]	Activity [10]	Activity [11]	Activity [12]	Activity [13]	Activity [14]	Activity [15]	growth inhibition (GI) [16]
–	Nc1ccc(C(=O)/C=C/c2[nH]nc3c2Cc2ccccc2-3)cc1	5.66 µM	8.35 µM	7.47 µM	14.9 µM	11.5 µM	35 µM	–	–	–	–	–	–	–	–	–	–
–	COc1ccc(C(=O)/C=C/c2[nH]nc3c2Cc2cc(OC)c(OC)cc2-3)cc1	6.54 µM	6.99 µM	8.52 µM	11.6 µM	9.88 µM	23 µM	–	–	–	–	–	–	–	–	–	–
–	COc1ccc2c(c1)-c1n[nH]c(/C=C/C(=O)c3ccc(N)cc3)c1C2	11.9 µM	11.2 µM	12.5 µM	19.8 µM	11.3 µM	19 µM	–	–	–	–	–	–	–	–	–	–
Active	COc1ccc(C(=O)/C=C/c2[nH]nc3c2Cc2cc(OC)c(OC)cc2-3)cc1OC	3.82 µM	6.94 µM	5.11 µM	6.66 µM	5.21 µM	46 µM	5.27%	45.9%	7.62%	40.6%	Active	Active	Active	Active	Active	Active
–	COc1cc2c(cc1OC)-c1n[nH]c(/C=C/C(=O)c3ccc(N)cc3)c1C2	6.4 µM	7.5 µM	9.23 µM	8.34 µM	9.73 µM	20 µM	–	–	–	–	–	–	–	–	–	–
–	COc1ccc2c(c1)-c1n[nH]c(/C=C/C(=O)c3ccc4c(c3)OCO4)c1C2	9.31 µM	9.99 µM	12.5 µM	13.7 µM	12.4 µM	54 µM	–	–	–	–	–	–	–	–	–	–
Active	COc1cc2c(cc1OC)-c1n[nH]c(/C=C/C(=O)c3cc(OC)c(OC)c(OC)c3)c1C2	6.03 µM	6.83 µM	4.97 µM	5.9 µM	4.33 µM	29 µM	5.16%	51.1%	9.36%	33.7%	Active	Active	Active	Active	Active	Active
–	C#Cc1cccc(Nc2ncnc3cc(OCCOC)c(OCCOC)cc23)c1 [ERLOTINIB]	0.05 µM	12.4 µM	3.98 µM	7.31 µM	–	73 µM	1.71%	64.1%	7.72%	26%	Active	Active	Active	Active	Active	–
–	COc1cc2c(cc1OC)-c1n[nH]c(/C=C/C(=O)c3ccc4c(c3)OCO4)c1C2	5.28 µM	6.9 µM	8.12 µM	11.6 µM	11.9 µM	18 µM	–	–	–	–	–	–	–	–	–	–
–	O=C(/C=C/c1[nH]nc2c1Cc1ccccc1-2)c1ccc2c(c1)OCO2	14.5 µM	12.4 µM	17.3 µM	13.8 µM	16 µM	17 µM	–	–	–	–	–	–	–	–	–	–
–	COc1ccc(C(=O)/C=C/c2[nH]nc3c2Cc2ccc(OC)cc2-3)cc1	6.21 µM	9.18 µM	10.2 µM	13.2 µM	13.3 µM	45 µM	–	–	–	–	–	–	–	–	–	–
–	COc1ccc2c(c1)-c1n[nH]c(/C=C/C(=O)c3ccc(OC)c(OC)c3)c1C2	4.48 µM	7.99 µM	9.22 µM	12.2 µM	10.4 µM	33 µM	–	–	–	–	–	–	–	–	–	–
–	COc1ccc(C(=O)/C=C/c2[nH]nc3c2Cc2ccccc2-3)cc1OC	6.82 µM	10.1 µM	11.4 µM	20.5 µM	13.4 µM	38 µM	–	–	–	–	–	–	–	–	–	–
–	COc1cc(C(=O)/C=C/c2[nH]nc3c2Cc2ccccc2-3)cc(OC)c1OC	5.52 µM	8.49 µM	8.64 µM	12.8 µM	10.9 µM	25 µM	–	–	–	–	–	–	–	–	–	–
–	COc1ccc(C(=O)/C=C/c2[nH]nc3c2Cc2ccccc2-3)cc1	10.1 µM	11.5 µM	14.7 µM	10.8 µM	14.3 µM	21 µM	–	–	–	–	–	–	–	–	–	–
Active	COc1ccc2c(c1)-c1n[nH]c(/C=C/C(=O)c3cc(OC)c(OC)c(OC)c3)c1C2	5.89 µM	6.55 µM	4.79 µM	6.85 µM	3.82 µM	32 µM	2.36%	59.5%	7.99%	29.6%	Active	Active	Active	Active	Active	Active
